Source: patent US6822100B2 (Bristol-Myers Squibb Company, priority 2001, dated 2004)
Like-named read-outs stand apart in the source and are kept apart here.

Tests used:
[1] = biological target: T1, human serotonin transporters (Homo sapiens, UniProt P31645); experiment: Serotonin Transporter Binding Assay; conditions: HEK-hSERT cell membranes, 1 nM [3H]-citalopram, Cheng and Prusoff
T1 construct: expressed in transfected cells; host or cells: HEK-293 (HEK-hSERT), membrane homogenates
Summary of the method: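 Displacement of 1 nM [^3H]-citalopram (1 hr, 25° C, Tris pH 7.4 with NaCl/KCl) from membranes of HEK-293 cells stably expressing human SERT, with bound ligand read after filtration. 10 μM fluoxetine defined non-specific binding. Ki values were derived via Cheng–Prusoff from IC50 displacement-curve midpoints.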

[2] = biological target: T2, recombinant human dopamine D2L receptors (Homo sapiens, UniProt P14416); experiment: Dopamine Binding Assay; conditions: HEK-D2L cell membranes, 150 pM [3H]-spiperone, Cheng and Prusoff
T2 construct: expressed in transfected cells; host or cells: HEK-293 (HEK-D2L), membrane homogenates
T2 sequence (P14416 whole entry): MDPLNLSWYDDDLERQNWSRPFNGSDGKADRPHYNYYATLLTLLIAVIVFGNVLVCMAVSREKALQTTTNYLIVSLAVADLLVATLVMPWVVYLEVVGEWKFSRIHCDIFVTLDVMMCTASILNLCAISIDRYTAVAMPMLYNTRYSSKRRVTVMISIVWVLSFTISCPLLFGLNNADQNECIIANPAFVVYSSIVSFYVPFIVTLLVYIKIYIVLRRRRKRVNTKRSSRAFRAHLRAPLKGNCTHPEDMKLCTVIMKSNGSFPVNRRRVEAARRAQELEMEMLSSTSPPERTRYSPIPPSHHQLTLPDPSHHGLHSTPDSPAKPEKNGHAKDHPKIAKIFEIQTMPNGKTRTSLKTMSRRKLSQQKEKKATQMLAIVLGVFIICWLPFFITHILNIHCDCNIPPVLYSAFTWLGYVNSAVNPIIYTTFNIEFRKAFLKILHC
Summary of the method: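 Competition binding on HEK-293 membranes stably expressing human D2L (~5 μg protein) with 150 pM [3H]-spiperone, 1.5 h at 22 °C in 50 mM Tris pH 7.4, 1 mM EDTA, 6 mM MgCl2. Filtration read-out; non-specific binding defined with 2 μM (+)butaclamol, Ki by Cheng-Prusoff.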

T1 sequence (P31645 whole entry): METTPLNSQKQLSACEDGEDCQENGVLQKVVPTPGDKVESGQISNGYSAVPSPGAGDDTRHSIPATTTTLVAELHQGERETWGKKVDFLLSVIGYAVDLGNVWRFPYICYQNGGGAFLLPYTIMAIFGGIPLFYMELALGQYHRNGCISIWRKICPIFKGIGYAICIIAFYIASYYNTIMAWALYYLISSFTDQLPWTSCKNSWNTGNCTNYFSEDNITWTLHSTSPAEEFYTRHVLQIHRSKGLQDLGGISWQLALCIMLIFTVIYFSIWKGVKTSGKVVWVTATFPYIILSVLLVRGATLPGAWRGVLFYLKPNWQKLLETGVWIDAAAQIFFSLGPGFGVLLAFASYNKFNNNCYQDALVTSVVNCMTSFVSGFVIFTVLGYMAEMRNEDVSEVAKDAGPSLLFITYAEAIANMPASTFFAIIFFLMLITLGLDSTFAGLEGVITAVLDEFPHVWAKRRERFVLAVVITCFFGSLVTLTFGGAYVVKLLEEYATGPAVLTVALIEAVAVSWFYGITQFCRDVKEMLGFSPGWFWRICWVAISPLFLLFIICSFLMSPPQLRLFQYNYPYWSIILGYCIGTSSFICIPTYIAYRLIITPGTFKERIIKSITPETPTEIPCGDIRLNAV

Structure (SMILES)	Ki ([1]; read-out: SERT Ki) [nM]	Ki [2] [µM]	Ki ([1]; SERT Ki (nM)) [nM]
CCCOC(=O)NCCN(CC)C[C@@H]1C[C@H]1c1c[nH]c2ccc(C#N)cc12 (relative stereo) [Example 95, trans-2-[5-Cyanoindol-3-yl]-1-[N,N-ethyl-2-amino(propylcarbamoyl)ethylaminomethyl]-cyclopropane]	1 to 10	> 1	
N#Cc1ccc2[nH]cc([C@@H]3C[C@H]3CNCc3ccccc3)c2c1 (relative stereo) [Example 7, trans-1-(N-Benzlyaminomethyl)-2-[5-cyanoindol-3-yl]-cyclopropane]	1 to 10	0.1 to 1	
CN(C)CC1CC1c1c[nH]c2cc(F)c(F)cc12 (centres unmarked) [Example 152, [2-(5,6-Difluoro-1H-indol-3-yl)-cyclopropylmethyl]-dimethyl-amine]		> 1	1 to 10
Fc1ccc2[nH]cc([C@@H]3C[C@H]3CN3CCc4ccccc4C3)c2c1 (relative stereo) [Example 76, trans-1-[1,2,3,4-tetrahydro-1H-isoquinolin-2-yl-methyl]-2-[5-fluoroindol-3-yl]-cyclopropane]	10 to 100	0.01 to 0.1	
CNC[C@H]1C[C@@H]1c1c[nH]c2cc(C(F)(F)F)ccc12 (racemic) [Example 155, Methyl-[2-(6-trifluoromethyl-1H-indol-3-yl)-cyclopropylmethyl]-amine]		> 1	10 to 100
CCOC(=O)NCCCN(C)C[C@@H]1C[C@H]1c1c[nH]c2ccc(C#N)cc12 (relative stereo) [Example 90, trans-2-[5-Cyanoindol-3-yl]-1-[N,N-methyl-2-amino(ethylcarbamoyl)propylaminomethyl]-cyclopropane]	1 to 10	0.1 to 1	
N#Cc1ccc2[nH]cc(C3CC3CN3CCCCC3)c2c1 (stereo not drawn) [Example 47, trans-2-[5-Cyanoindol-3-yl]-1-[piperidin-1-yl-methyl]-cyclopropane]	10 to 100	0.1 to 1	
Fc1ccc2[nH]cc(C3CC3CN3CCNCC3)c2c1 (stereo not drawn) [Example 74, trans-2-[5-Fluoroindol-3-yl]-1-(piperazin-1-yl-methyl)-cyclopropane]		> 1	1 to 10
CNCC1CC1c1c[nH]c2ccc(F)cc12 (centres unmarked) [Example 132]	10 to 100	0.1 to 1	
N#Cc1ccc2[nH]cc([C@@H]3C[C@H]3CNCCc3cccs3)c2c1 (relative stereo) [Example 25]	1 to 10	0.1 to 1	
CN(Cc1ccccc1)C[C@@H]1C[C@H]1c1c[nH]c2ccc(C#N)cc12 (relative stereo) [Example 3, Trans-2-[5-Cyanoindol-3-yl]-1-[N,N-methyl-benzylaminomethyl]-cyclopropane]	< 1	0.1 to 1	
N#Cc1ccc2[nH]cc(C3CC3CNCc3cccc(F)c3)c2c1 (stereo not drawn) [Example 12, trans-2-[5-Cyanoindol-3-yl]-1-[N-(3-fluorobenzyl)aminomethyl]-cyclopropane]	1 to 10	0.1 to 1	
CN(Cc1ccccc1)C[C@H]1C[C@@H]1c1c[nH]c2cc(C#N)ccc12 (racemic) [Example 162, 3-{2-[(Benzyl-methyl-amino)-methyl]-cyclopropyl}-1H-indole-6-carbonitrile]	10 to 100	0.1 to 1	
Fc1ccc2[nH]cc(C3CC3CNC3CCCCC3)c2c1 (stereo not drawn) [Example 70, trans-1-[N-Cyclohexylaminomethyl]-2-[5-fluoroindol-3-yl]-cyclopropane]	10 to 100	0.1 to 1	
CCN(CC)C(C)C1CC1c1c[nH]c2ccc(C#N)cc12 (racemic) [Example 123, trans-3-[2-(1-Diethylamino-ethyl)-cyclopropyl]-1H-indole-5-carbonitrile]		> 1	10 to 100
Fc1ccc2[nH]cc(C3CC3CNCc3cccs3)c2c1 (stereo not drawn) [Example 66, trans-2-[5-Fluoroindol-3-yl]-1-[N-2-thiopheneylmethylaminomethyl]-cyclopropane]	10 to 100	0.1 to 1	
